Each structure is given as a SMILES string.

Assay [1] addresses HEK-293 cells expressing human recombinant adenosine A2A receptor (Homo sapiens (Human), UniProt P29274). The assay is described as follows: cAMP assay, Assay 2 (Eu-cAMP tracer / ULight-anti-cAMP). Format: cell-based. Conditions: Assay 2. How it is done: The functional activity of compounds was tested using one of the two assays to detect the present of cAMP. Activation of G-protein coupled receptors (such as A2A) results in activation of adenylcyclase which converts ATP into cAMP which is used as a downstream signaling molecule. Therefore, molecules which act as GPCR (or specifically A2A receptor) antagonists cause a decrease in intracellular cAMP concentration.
Both assays used HEK-293 cells expressing human recombinant adenosine A2A receptor were grown prior to the test in media without antibiotic.
Assay 2 (Table B2-2): 100 nL of test articles at 100× of final concentration were transferred to assay plate by Echo. Cells were washed twice with 5 mL of PBS […]. After aspirating the PBS and adding 1.5 mL versine, cells were incubated at 37° C. for 2-5 min. After centrifugation, 4 mL of medium was added and adjusted cell density to 5,000 cells/well with Stimulation Buffer. 10 μL of cells were aliquoted to the assay plate, centrifuged at 1000 rpm for 1 minute, and incubated for 60 minutes at room temperature. 5 μL 4×Eu-cAMP tracer solution and 5 μL 4×Ulight™-anti-cAMP solution were added to assay plate, followed by centrifugation and 60-minute incubation at room temperature. Plates were read on EnVision.
For orientation: Changes in cAMP serve as a functional read-out for many G protein-coupled receptors.

The target in assay [2] is human adenosine A2A membrane preparation (Homo sapiens (Human), UniProt P29274). The assay is described as follows: Adenosine A2A receptor radioligand binding assay (SPA beads, 3H-SCH 58261, 384 plate). Particulars: for inhibition at 0.01 µM: read-out: A2a binding % inh @ 10 nM; for inhibition at 0.1 µM: read-out: A2a binding % inh @ 100 nM; for inhibition at 1 µM: read-out: A2a binding % inh @ 1000 nM; for inhibition at 0.001 µM: read-out: A2a binding % inh @ 1 nM. How it is done: For the A2A adenosine receptor radioligand binding assay, the following modifications were made to the general protocol. GF/C filters (Perkin Elmer, 6005174), presoaked in 0.01% Brij for 2 h at room temperature were used. Filters were washed six times with 0.5 mL of ice-cold washing buffer (50 mM Tris pH 7.4) and 50 μL of Microscint 20 (Packard) was added in each well. The plates were then incubated for 15 min on an orbital shaker and then counted with a TopCount™ for 1 min/well. Another radioligand binding assay was used to evaluate the binding affinity for the adenosine A2A receptor assay was performed in duplicate in the wells of a 384 plate. Assay buffer contained DPBS 500 mM, MgCl2 0.1 mM, and 1% DMSO. Membrane-bead suspension was prepared by mixing 25.98 μL of human adenosine A2A membrane preparation (Perkin Elmer, RBHA2AM400UA) at 33.4 μg/mL, 28 μL of ADA at 20 μg/mL, and 932 μL of SPA beads at 3.33 mg/mL) and incubated the mixture for 20 min at room temperature. Mixed 20 μL of radiotracer (^3H-SCH 58261) at 15 nM to each well containing test articles at various concentrations and centrifuge the plate at 1000 rpm for 1 minute. Added 30 μL of the membraine-bead suspension to each well. Sealed the plates and incubated for 1 hr at room temperature with vigorous mixing on a plate mixer. Plates were read on Microbeta^2 (Perkin Elmer, 2450-0010).
human adenosine A2A membrane preparation, sequence (P29274 whole entry): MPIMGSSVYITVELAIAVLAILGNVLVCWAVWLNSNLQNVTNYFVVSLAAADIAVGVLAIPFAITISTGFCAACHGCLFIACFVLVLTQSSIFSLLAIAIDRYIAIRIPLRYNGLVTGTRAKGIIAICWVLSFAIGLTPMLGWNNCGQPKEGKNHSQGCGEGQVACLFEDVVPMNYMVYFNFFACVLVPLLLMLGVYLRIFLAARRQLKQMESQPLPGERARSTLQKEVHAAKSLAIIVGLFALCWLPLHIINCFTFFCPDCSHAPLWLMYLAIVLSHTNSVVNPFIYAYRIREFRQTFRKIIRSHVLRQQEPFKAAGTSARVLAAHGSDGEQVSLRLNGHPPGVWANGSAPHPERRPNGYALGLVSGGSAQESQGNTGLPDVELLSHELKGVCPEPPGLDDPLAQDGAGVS

HEK-293 cells expressing human recombinant adenosine A2A receptor, sequence (P29274 whole entry): as above

The term IC50 denotes the concentration needed to halve the response being measured. As for `Cc1n[nH]c(C)c1-c1nc(N)cnc1-c1ccc2ncccc2c1` [Compound 1.294, 6-(3,5-dimethyl-1H-pyrazol-4-yl)-5-(quinolin-6-yl)pyrazin-2-amine], in assay [1], the IC50 is above 10 µM.
As to `Cc1ccn(-c2nc(N)cnc2-c2cc(C)c3ncccc3c2)n1` [Compound 1.296, 6-(3-methyl-1H-pyrazol-1-yl)-5-(8-methylquinolin-6-yl)pyrazin-2-amine], in assay [1], the IC50 came to 0.13 µM.
On the same count and under the same terms, as for `Nc1cnc(-c2ccc3ncccc3c2)c(N2CCCC2)n1` [Compound 1.298, 6-(pyrrolidin-1-yl)-5-(quinolin-6-yl)pyrazin-2-amine], the figure is above 10 µM.
Turning to `Cn1ccc(-c2nc(N)cnc2-c2ccc3[nH]ncc3c2)n1` [Compound 1.299, 5-(1H-indazol-5-yl)-6-(1-methyl-1H-pyrazol-3-yl)pyrazin-2-amine], in assay [1], the half-inhibitory concentration (IC50) turned out to be 1.25 µM.
`Cc1ccn(-c2nc(N)cnc2-c2cc(C)c3[nH]ncc3c2)n1` [Compound 1.300, 5-(7-methyl-1H-indazol-5-yl)-6-(3-methyl-1H-pyrazol-1-yl)pyrazin-2-amine]: the IC50 in assay [1] was 0.12 µM.
Regarding `Nc1cnc(-c2ccc3ncccc3c2)c(N2CCCC2=O)n1` [Compound 1.301, 1-(6-amino-3-(quinolin-6-yl)pyrazin-2-yl)pyrrolidin-2-one], the IC50 in assay [1] was above 10 µM.
Regarding `Cc1cnn(-c2nc(N)cnc2-c2cc(Cl)c3ncccc3c2)c1` [Compound 1.303, 5-(8-chloroquinolin-6-yl)-6-(4-methyl-1H-pyrazol-1-yl)pyrazin-2-amine], in assay [1], the IC50 is 0.573 µM.
For `Cn1ccc(-c2nc(N)cnc2-c2cc(Cl)c3ncsc3c2)n1` [Compound 1.305, 5-(4-chlorobenzo[d]thiazol-6-yl)-6-(1-methyl-1H-pyrazol-3-yl)pyrazin-2-amine], the 50% inhibitory concentration (IC50) in assay [1] was 0.096 µM.
Turning to `Nc1cnc(-c2cc(Cl)c3ncccc3c2)c(-n2ccc(C(F)(F)F)n2)n1` [Compound 1.306, 5-(8-chloroquinolin-6-yl)-6-(3-(trifluoromethyl)-1H-pyrazol-1-yl)pyrazin-2-amine], the IC50 in assay [1] was determined as 0.12 µM.
Turning to `Nc1cnc(-c2cc(Cl)c3ncccc3c2)c(-c2ccn(C3CC3)n2)n1` [Compound 1.307, 5-(8-chloroquinolin-6-yl)-6-(1-cyclopropyl-1H-pyrazol-3-yl)pyrazin-2-amine], the half-inhibitory concentration (IC50) in assay [1] was found to be 8.48 µM.
For the compound `Cn1ccc(-c2nc(N)c(O)nc2-c2cc(Cl)c3ncccc3c2)n1` [Compound 1.310, 3-amino-6-(8-chloroquinolin-6-yl)-5-(1-methyl-1H-pyrazol-3-yl)pyrazin-2-ol], in assay [1], the half-maximal inhibitory concentration (IC50) came out at 0.127 µM.
The same measure, in the same setting: as for `Cn1ccc(-c2nc(N)c(C(N)=O)nc2-c2cc(Cl)c3ncccc3c2)n1` [Compound 1.311, 3-amino-6-(8-chloroquinolin-6-yl)-5-(1-methyl-1H-pyrazol-3-yl)pyrazine-2-carboxamide], the figure is 0.279 µM; as for `COc1nc(-c2cc(Cl)c3ncccc3c2)c(-c2ccn(C)n2)nc1N` [Compound 1.312, 5-(8-chloroquinolin-6-yl)-3-methoxy-6-(1-methyl-1H-pyrazol-3-yl)pyrazin-2-amine], 0.251 µM.
Same read-out and setting: as for `Cc1ccn(-c2nc(N)c(O)nc2-c2cc(Cl)c3ncccc3c2)n1` [Compound 1.313, 3-amino-6-(8-chloroquinolin-6-yl)-5-(3-methyl-1H-pyrazol-1-yl)pyrazin-2-ol], the figure is 1.55 µM; as for `Cn1ccc(-c2nc(N)cnc2-c2cc(F)c3ncccc3c2)n1` [Compound 1.314, 5-(8-fluoroquinolin-6-yl)-6-(1-methyl-1H-pyrazol-3-yl)pyrazin-2-amine], 1.54 µM.
Take `Cc1ccn(-c2nc(N)c(Br)nc2-c2cc(Cl)c3ncccc3c2)n1` [Compound 1.316, 3-bromo-5-(8-chloroquinolin-6-yl)-6-(3-methyl-1H-pyrazol-1-yl)pyrazin-2-amine]: the concentration for half-maximal inhibition (IC50) in assay [1] was 0.0401 µM.
For the compound `Cc1ccn(-c2nc(N)c(C(N)=O)nc2-c2cc(Cl)c3ncccc3c2)n1` [Compound 1.317, 3-amino-6-(8-chloroquinolin-6-yl)-5-(3-methyl-1H-pyrazol-1-yl)pyrazine-2-carboxamide], the concentration for half-maximal inhibition (IC50) in assay [1] stood at 0.279 µM.
On to `CCn1ccc(-c2nc(N)cnc2-c2cc(Cl)c3ncccc3c2)n1` [Compound 1.319, 5-(8-chloroquinolin-6-yl)-6-(1-ethyl-1H-pyrazol-3-yl)pyrazin-2-amine], for which the half-maximal inhibitory concentration (IC50) in assay [1] turned out to be 1.93 µM.
For the compound `Cn1ccc(-c2nc(N)c(Br)nc2-c2cc(Cl)c3ncccc3c2)n1` [Compound 1.324, 3-bromo-5-(8-chloroquinolin-6-yl)-6-(1-methyl-1H-pyrazol-3-yl)pyrazin-2-amine], the 50% inhibitory concentration (IC50) in assay [1] came to 0.0125 µM.
As to `Nc1cnc(-c2ccc3c(=O)[nH]ccc3c2)c(-c2ccccc2)n1` [Compound 1.327, 6-(5-amino-3-phenylpyrazin-2-yl)isoquinolin-1(2H)-one], the IC50 in assay [1] was 0.173 µM.
Still for that read-out and setting: as for `Cn1cccc(-c2nc(N)cnc2-c2cc(Cl)c3ncccc3c2)c1=O` [Compound 1.329, 3-(6-amino-3-(8-chloroquinolin-6-yl)pyrazin-2-yl)-1-methylpyridin-2(1H)-one], the figure is above 10 µM; as for `Cn1ccc(-c2nc(N)cnc2-c2ccc3[nH]c(=O)ccc3c2)n1` [Compound 1.353, 6-(5-amino-3-(1-methyl-1H-pyrazol-3-yl)pyrazin-2-yl)quinolin-2(1H)-one], above 10 µM; as for `Cc1cnc(-c2nc(N)cnc2-c2cc(Cl)c3ncccc3c2)s1` [Compound 1.395, 5-(8-chloroquinolin-6-yl)-6-(5-methylthiazol-2-yl)pyrazin-2-amine], 0.563 µM.
As for `Cc1ccc(-c2nc(N)c(C#N)nc2-c2ccc3ncccc3c2)o1` [Compound No. 1.281, 3-amino-5-(5-methylfuran-2-yl)-6-(quinolin-6-yl)pyrazine-2-carbonitrile], in assay [2], the inhibition at 0.01 µM was 78%, the inhibition at 0.1 µM came out at 88% and the inhibition at 1 µM was 80%.
For `Cc1ccc(-c2nc(N)c(C#N)nc2-c2ccc3ncccc3c2)s1` [Compound No. 1.282, 3-amino-5-(5-methylthiophen-2-yl)-6-(quinolin-6-yl)pyrazine-2-carbonitrile] the same measures were 74%, 82% and 79%.
Take `N#Cc1nc(-c2ccc3ncncc3c2)c(-c2ccccc2)nc1N` [Compound No. 1.283, 3-amino-5-phenyl-6-(quinazolin-6-yl)pyrazine-2-carbonitrile]: in assay [2], the inhibition at 0.01 µM turned out to be 63%, the inhibition at 0.1 µM turned out to be 83% and the inhibition at 1 µM was determined as 95%.
Take `CC(=O)Nc1nc(-c2ccccc2)c(-c2ccc3ncccc3c2)nc1C#N` [Compound No. 1.284, N-(3-cyano-6-phenyl-5-(quinolin-6-yl)pyrazin-2-yl)acetamide]: in assay [2], the inhibition at 0.01 µM came out at 32%, the inhibition at 0.1 µM amounted to 76% and the inhibition at 1 µM is 83%.
`Nc1cnc(-c2cc(Cl)c3[nH]ncc3c2)c(-c2ccccc2)n1` [Compound No. 1.289]: in assay [2], the inhibition at 0.001 µM came to 41%, the inhibition at 0.01 µM was found to be 75%, the inhibition at 0.1 µM was found to be 87% and the inhibition at 1 µM was found to be 95%.
As for `Cc1cc(C)n(-c2nc(N)cnc2-c2ccc3ncccc3c2)n1` [Compound No. 1.291, 6-(3,5-dimethyl-1H-pyrazol-1-yl)-5-(quinolin-6-yl)pyrazin-2-amine], in assay [2], the inhibition at 0.001 µM is 0%, the inhibition at 0.01 µM amounted to 0% and the inhibition at 0.1 µM is 0%.
In assay [2] (Table B1-2), `Cc1ccn(-c2nc(N)c(C#N)nc2-c2cc(Cl)c3ncccc3c2)n1` [Compound No. 1.292, 3-amino-6-(8-chloroquinolin-6-yl)-5-(3-methyl-1H-pyrazol-1-yl)pyrazine-2-carbonitrile] registered an IC50 of 0.0024 µM. Besides, in assay [2], the inhibition at 0.001 µM stood at 50%, the inhibition at 0.01 µM is 93% and the inhibition at 0.1 µM amounted to 95%.
On to `Nc1cnc(-c2ccc3ncccc3c2)c(-c2cc[nH]n2)n1` [Compound No. 1.293, 6-(1H-pyrazol-3-yl)-5-(quinolin-6-yl)pyrazin-2-amine], for which, in assay [2], the inhibition at 0.001 µM turned out to be 28%, the inhibition at 0.01 µM stood at 32% and the inhibition at 0.1 µM was found to be 31%.

These data come from patent US11028058B2, “Heterocyclic compounds as adenosine antagonists” (NUVATION BIO INC., priority 2017, dated 2021).
